≈ marks a conversion by molar mass, not a printed value. Read-outs that look alike come from different tables or passages of the source. Some results are limits rather than exact numbers.

The test system of experiment [1] is IL-1 secretion, THP-1 cells. Nature of the experiment: LPS-stimulated IL-1 secretion by THP-1 cells, IL-1 ELISA of supernatant. In kind it is cell-based, human. Particulars: IL-1 in supernatant, THP-1 cells pre-treated 4 hours, LPS 100 nanograms/ml 16 hours; for EC50: Homo sapiens, read-out: EC 50 in ug/ml (50% Effective Dose in vitro).
Experimental: For this evaluation, white blood cells were dosed with varying concentrations of the ingredients. An inflammatory stimulus, lipopolysaccharide (LPS), was then added to the ingredient-plus-cell culture, as well as untreated control samples of white blood cells. The production of the IL-1 cytokine of both the ingredient-treated cells and the untreated cells was compared to extrapolate the concentration of the ingredient that causes a 50% change in the concentration of IL-1 produced by the cells.
To perform the evaluation of inhibiting interleukin synthesis of this example, human white blood cells, specifically THP-1 cells obtained from ATCC of Manassas, Va., were grown under conditions recommended by ATCC in a humidified 37° C. incubator, which was supplied with 5% carbon dioxide. To test the IL-1 inhibitory potential of various compounds, multiple groups of THP-1 cells were plated in 96 well plates. […] With these cell samples plated, they were then dosed.
In dosing, each of the ingredients was administered to the plated THP-1 cells in varying doses, specifically, 100 ug/ml, 10 ug/ml, 1 ug/ml and 0 ug/ml. […] The THP-1 cells, now dosed with the desired ingredients, were returned to the incubator and incubated for 4 hours under the same conditions.
Thereafter, a known inflammatory stimulator, lipopolysaccharide (LPS) was added to each well plate to a final concentration of 100 nanograms/ml. The LPS treated cultures were returned to the incubator for an additional 16 hours. […]
Thereafter, the liquids from each of the wells were removed and the coated plate was washed 3 times in a wash buffer. […] The reaction of the substrate solution (TMB) and the horseradish peroxidase conjugated to the anti-IL-1 antibody produces a colored product with specific spectral absorbance at wavelength of 450 nm.
The calibration standard samples were subjected to the same protocol as the supernatant samples to determine the IL-1 present in those calibration samples. […] The optical density of the standard calibration samples were then plotted to determine a standardized IL-1 absorbance calibration curve.
In experiment [2] the test system is IL-1/IL-6 Stimulated CRP Secretion, hepatocytes. The experiment can be described thus: IL-1/IL-6 stimulated CRP secretion by primary hepatocytes, CRP ELISA of supernatant. The format is cell-based. As to conditions: Homo sapiens, Hepatocyte.
Experimental: Hepatocytes' response to IL-1 expression levels was evaluated by measuring CRP in the culture supernatant after exposure of the hepatocytes to IL-1 and IL-6 with or without pre-treatment with varying doses of the other ingredients.
The IL-1 response effects were evaluated in hepatocytes by measuring the secretion of CRP when the hepatocytes were exposed to IL-1α and IL-6 with or without pre-treatment with varying doses of the other ingredients. […] Thus, by measuring CRP secreted by the hepatocytes, the degree of cells' response to IL-1 and/or IL-6 is able to be determined.
To perform the evaluation of this example, human primarily isolated hepatocyte cells, obtained from In vitro Technology of Baltimore, Md., were restored under the conditions recommended by In vitro Technology in a humidified 37° C. incubator, which was supplied with 5% carbon dioxide. To test the CRP response potential of various compounds, multiple groups of hepatocytes were plated in 96 well plates. Specifically, 1×10^4 cells were plated in hepatocyte media supplement with 10% fetal bovine serum which were then exposed with varying doses, specifically, 100 ug/ml, 10 ug/ml, 1 ug/ml and 0 ug/ml of test ingredients. […]
The subject of experiment [3] is IL-1 secretion, THP-1 cells. The experiment can be described thus: Synergy or interference of other ingredients with optional primary ingredients in inhibiting LPS-stimulated IL-1 secretion. The format is cell-based, human. The arrangement: key: a “+” indicates interference or synergy, respectively as shown; a “−” indicates no interference or no synergy.
Experimental: Specifically, the release of IL-1 from the THP-1 cells after exposure to lipopolysaccharide (LPS) with or without pre-treatment in varying doses of the other ingredients, or a combination of those other ingredients with optional primary ingredients, was measured to evaluate the effects of the other ingredients on monocyte IL-1α secretion.
The other ingredients tested were: blackberry extract, blueberry extract, cranberry extract, rosemary extract, clove extract and resveratrol.
In Table IV, a “−” indicates no interference or no synergy, and a “+” indicates interference or synergy, respectively as shown.

For the compound `CC(C)Oc1ccc2c(=O)c(-c3ccccc3)coc2c1` [Ipriflavone, reference compound], the EC50 in experiment [1] was less than 1 µg/mL.

As to `Oc1ccc(C=Cc2cc(O)cc(O)c2)cc1` [Resveratrol], the EC50 in experiment [2] (IL-1/IL-6 stimulated CRP secretion, hepatocytes, Example 2, read-out: CRP EC 50 in ug/ml (50% Effective Dose in vitro)) fell in the range of 1 to 10 µg/mL (≈ 4.38 to 43.8 µM); in experiment [2] (hepatocytes activated via IL-1 and IL-6 (1 ng/ml each), read-out: EC50 of CRP secretion inhibition), 1 to 10 µg/mL (≈ 4.38 to 43.8 µM). Further, the “Interference +/−” value in experiment [3] (with Artichoke), in experiment [3] (with Nettle Root), in experiment [3] (with Olive Extract) and in experiment [3] (with Rosehips) was “−” in each case. Moreover, the “Synergy +/−” value in experiment [3] (with Artichoke), in experiment [3] (with Nettle Root), in experiment [3] (with Olive Extract) and in experiment [3] (with Rosehips) was “−” in each case.

For the compound `COc1cc(/C=C/C(=O)O)ccc1O` [Ferulic acid], in experiment [1], the EC50 stood at 10 µg/mL (≈ 51.5 µM).

`O=C(O[C@@H]1Cc2c(O)cc(O)cc2O[C@@H]1c1cc(O)c(O)c(O)c1)c1cc(O)c(O)c(O)c1` [Epigallocatechin gallate]: in experiment [1], the “EC 50 in ug/ml (50% Effective Dose in vitro)” value is less than 1 µg/mL.
